In patent US9187496B2 (priority 2009, dated 2015):
Like-named read-outs stand apart in the source and are kept apart here.

Experiments:
[1] = system: HCV genotype 2a-specific NS5A gene within the 1b-replicon; test: Luciferase replicon assay, NS5A-intergenotypic stable cell line genotype 2a; format: cell-based; settings: read-out: EC50 2a
Excerpt: (§1) The nucleotide sequences of the NS5A region of genotype 2a (GenBank Accession #AB047639), genotype 3a (GenBank Accession #D17763), and genotype 4a (GenBank Accession#DQ418788) were synthesized by an outside vendor. The NS5A region of each of these genotypes included the first 11 amino acids of the protease recognition sequence of genotype 1b, as well as the last 10 amino acids of genotype 1b. The NS5A gene cassettes were excised with site specific restriction endonucleases and ligated into a ZS11-luciferase genotype 1b backbone (backbone contains the genotype 1b NS3 protease, NS4a, NS4b, and NS5b coding regions) with similarly cut restriction enzyme sites. Thus, the newly constructed plasmid contains a genotype 2a-, 3a- or 4a-specific NS5A gene within the 1b-replicon.
(§2) These new intergenotypic plasmids were used to establish stable cell lines. RNA was generated from the NS5A intergenotypic plasmids and used in conjunction with a lipofectin reagent to transfect a cured Huh7 cell line. Transfected cells were selected for with G418. After selection has occurred the stable cell lines were propagated, tested for luciferase activity, and RT-PCR with genotype specific primers (either 1a, 2a, 3a, or 4a). Stable cell lines containing the intergenotypic replicon were then fully sequenced and analysed for proper expression of NS3, NS5A and NS5B proteins.
(§3) Drug titration analysis was performed using the luciferase replicon assay described herein.
(§4) The HCV luciferase replicon assay measures the ability of a test compound to inhibit HCV replication in cell culture after 3 days of treatment in a human hepatoma cell line (Huh-7) bearing a HCV replicon containing a luciferase-neomycin phosphotransferase fusion gene. The inhibition of HCV replication was measured by quantification of luciferase protein expression. Briefly, Huh-7 cells containing either the HCV genotype 1a H77 strain or genotype 1b Conl strain subgenomic luciferase replicon (H1a-luc or Zluc, respectively) were grown in DMEM containing glucose, L-glutamine and sodium pyruvate, 10% fetal bovine serum (FBS), 100 IU/mL penicillin, 100 μg/mL streptomycin, 2 mM GlutaMAX, non-essential amino acids and 0.25 (H1a-luc) or 0.5 (Zluc) mg/mL G418. GlutaMAX was obtained from Invitrogen, Corp.; all other media reagents were obtained from Mediatech, Inc. For dose-response testing, the cells were seeded in 96-well plates at 1×10^4 (H1a-luc) or 7.5×10^3 (Zluc) cells/well in a volume of 50 μL, and incubated at 37° C./5% CO2. Three hours after plating, 50 μL of ten 5-fold serial dilutions of compound were added, and cell cultures were incubated at 37° C./5% CO2 for 72 hours. In all cases, Huh-7 cells lacking the HCV replicon served as negative control. To assess luciferase expression, the media/compound was removed from the plates and ONE-glo Luciferase assay reagent (Promega) was added to each well. The assay plates were shaken for 3 minutes at room temperature and luciferase activity for each well was measured with a 1 sec read time on the Victor^3V multilabel counter using a 700 nm cut-off filter (Perkin Elmer). EC50 values were calculated from dose response curves from the resulting best-fit equations determined by Microsoft Excel and XLfit 4.1 software.

[2] = Cytotoxicity evaluation in luciferase replicon cells (Cell Titer 96 AQueous One); format: cell-based, human; settings: human; Table 1B, cellular viability
Experimental: (§5) For cytotoxicity evaluation, H1a-luc or Zluc cells were treated with compounds as described above and cellular viability was monitored using the Cell Titer 96 AQueous One Solution Cell Proliferation Assay (Promega). Plates were then read at 490 nm in a Victor^3V 1420 multilabel counter (Perkin Elmer) and CC50 concentrations were determined using Microsoft Excel and XLfit 4.1 software.

[3] = system: Huh-7 cells containing HCV Con1 subgenomic replicon (GS4.1 cells); test: HCV replicon assay (NS5A ELISA); format: cell-based; settings: Hepatitis C virus, Huh-7; GS4.1 cells, 72 hrs, NS5A ELISA; read-out: EC50
How it was run: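 GS4.1 cells dosed 3 h after seeding with ten 2-fold dilutions from 75 μM, or single 15 μM, in 0.5% DMSO for 72 h at 37° C; NS5A measured by ELISA (A-236 antibody, OPD, A492). EC50 from four-parameter sigmoidal fit of % inhibition.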

[4] = system: HCV genotype 1b Conl strain subgenomic luciferase replicon (Zluc); test: Luciferase replicon assay, genotype 1b; format: cell-based; settings: read-out: EC50 1b
Experimental: as §4

[5] = system: HCV genotype 4a-specific NS5A gene within the 1b-replicon; test: Luciferase replicon assay, NS5A-intergenotypic stable cell line genotype 4a; format: cell-based; settings: read-out: EC50 4a
Excerpt: as §1, §2, §3, §4

[6] = system: HCV genotype 1a H77 strain (H1a-luc replicon / 1a-H77NS5a intergenotypic replicon); test: Luciferase replicon assay, genotype 1a; format: cell-based; settings: Hepatitis C virus, read-out: EC50 1a, genotype 1a
Excerpt: To generate the 1a-H77NS5a intergenotypic plasmid, dual cut sites were inserted into the ZS11-luciferase genotype 1b backbone that would bracket the NS5a region almost in its entirety. Using PCR and 1a-H77 specific primers also containing the corresponding restriction enzyme sites, the NS5a gene was amplified from the 1a-H77 replicon. The ZS11-luciferase genotype 1b backbone and the genotype 1a NS5a PCR products were restriction enzyme digested and then ligated using standard molecular cloning techniques. The newly constructed plasmid contains the genotype 1a-specific NS5a gene where as the backbone remains 1b as described herein.
as §2, §3, §4

[7] = system: HCV genotype 3a-specific NS5A gene within the 1b-replicon; test: Luciferase replicon assay, NS5A-intergenotypic stable cell line genotype 3a; format: cell-based; settings: read-out: EC50 3a
Excerpt: as §1, §2, §3, §4

[8] = Cytotoxicity evaluation in GS4.1 cells (Cell Titer 96 AQueous One); format: cell-based, human; settings: human, cellular viability
Experimental: For cytotoxicity evaluation, GS4.1 cells were treated with compounds as described above and cellular viability was monitored using the Cell Titer 96 AQueous One Solution Cell Proliferation Assay (Promega). CC50 values were determined from the % cytotoxicity versus concentration data with Tecan Magellan software as described above.

H1a-luc or Zluc cells = test: Cytotoxicity evaluation in luciferase replicon cells (Cell Titer 96 AQueous One); format: cell-based, human; settings: Table 1B, cellular viability
Experimental: as §5

`COC(=O)N[C@H](C(=O)N1CCC[C@H]1c1ncc(-c2ccc(-c3csc4c(-c5ccc(-c6cnc([C@@H]7CCCN7C(=O)[C@@H](NC(=O)OC)C(C)C)[nH]6)cc5)csc34)cc2)[nH]1)C(C)C` [Compound A86, ((S)-1-((S)-2-(5-{4-[6-{4-{2-[(S)-1-((S)-2-methoxycarbonylamino-3-methyl-butyryl)-pyrrolidin-2-yl]-3H-imidazol-4-yl}-phenyl)-thieno[3,2-b]thiophen-3-yl]-phenyl}-1H-imidazol-2-yl)-pyrrolidine-1-carbonyl]-2-methyl-propyl}-carbamic acid methyl ester] gave an EC50 ([1]; Hepatitis C virus) of 1 to 10 nM, a CC50 at 72 h [2] of 10000 to 75000 nM and an EC50 [3] of less than 1 nM. For the same compound, the EC50 ([4]; Hepatitis C virus, 72 h) was less than 0.1 nM, the EC50 ([5]; Hepatitis C virus) was less than 0.1 nM and the EC50 [6] was 0.1 to 1 nM. For the same compound, the EC50 ([7]; Hepatitis C virus) was 1 to 10 nM and the CC50 [8] was 10000 to 75000 nM.
For `COC(=O)N[C@H](C(=O)N1CCC[C@H]1c1nc2ccc(-c3csc4c(C#Cc5cnc([C@@H]6CCCN6C(=O)[C@H](NC(=O)OC)c6ccccc6)[nH]5)csc34)cc2[nH]1)C(C)C` [Compound A206], the EC50 ([1]; genotype 2a) was less than 0.1 nM, the CC50 (H1a-luc or Zluc cells) was greater than 75000 nM and the EC50 ([4]; genotype 1b, luciferase replicon, 72 hours) was less than 0.1 nM. For the same compound, the EC50 ([5]; genotype 4a) was less than 0.1 nM and the EC50 ([7]; genotype 3a) was less than 0.1 nM.
